One test addresses Influenza Neuraminidase. Description: Influenza neuraminidase fluorimetric assay. In kind it is biochemical, influenza virus. Conditions: 4-methylumbelliferyl-alpha-D-acetylneuraminic acid substrate 75 uM, pH 6.5, 37 C.
Test [1] has as its target Sendai Virus Hemagglutinin-Neuraminidase (Sendai virus, UniProt P03425). The test is described as follows: Paramyxovirus hemagglutinin-neuraminidase fluorimetric assay. In kind it is biochemical.

For orientation: IC50 means the concentration at which inhibition is half-maximal. High values mean weaker potency, low ones greater potency.

Sequence of Sendai Virus Hemagglutinin-Neuraminidase (P03425 whole entry): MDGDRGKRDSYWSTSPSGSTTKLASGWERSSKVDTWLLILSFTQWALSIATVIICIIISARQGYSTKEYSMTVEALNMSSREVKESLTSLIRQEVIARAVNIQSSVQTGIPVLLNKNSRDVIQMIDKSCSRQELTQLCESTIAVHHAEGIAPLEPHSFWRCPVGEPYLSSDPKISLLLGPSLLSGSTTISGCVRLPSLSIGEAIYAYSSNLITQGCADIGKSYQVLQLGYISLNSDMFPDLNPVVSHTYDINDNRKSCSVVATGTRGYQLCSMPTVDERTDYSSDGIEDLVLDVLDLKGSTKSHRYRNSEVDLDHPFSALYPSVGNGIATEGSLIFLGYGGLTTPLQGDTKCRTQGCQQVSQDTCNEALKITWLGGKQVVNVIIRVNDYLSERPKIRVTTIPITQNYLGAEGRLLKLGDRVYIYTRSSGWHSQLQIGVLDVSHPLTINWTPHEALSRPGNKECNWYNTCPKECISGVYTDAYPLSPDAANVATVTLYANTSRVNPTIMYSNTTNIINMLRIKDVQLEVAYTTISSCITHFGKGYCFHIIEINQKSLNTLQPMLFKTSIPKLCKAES

For `CCC(CC)C(NC(C)=O)C1CC(C(=O)O)CC1NC(=N)N` (single isomer, unassigned; (-)) [Compound 3, (-)t-3-[(1-Acetylamino-2-ethyl)butyl]-c-4-(aminoiminomethyl)aminocyclopentan-r-1-carboxylic acid], the IC50 was less than 0.05 µM against Influenza Neuraminidase and more than 300 µM in test [1].
Regarding `CCN(CC)C(=O)C(NC(C)=O)C1CC(C(=O)O)CC1NC(=N)N` (stereo not drawn) [Compound 1, alpha-3-[(Acetylamino)(diethylaminocarbonyl)methyl]-beta-4-[(aminoiminomethyl)amino]cyclopentane-1-carboxylic acid], the figures for the IC50 (on Influenza Neuraminidase; in test [1]) were less than 0.05 µM and more than 300 µM, respectively.
Take `CCC(CC)C(NC(C)=O)C1C(NC(=N)N)CC(C(=O)O)C1O` (single isomer, unassigned; (-)) [Compound 2, (-)-t-e-[(1-Acetylamino)(2-ethyl)butyl]-c-4-(aminoiminomethyl)amino-t-2-hydroxycyclopentan-r-1-carboxylic acid]: the half-inhibitory concentration (IC50) against Influenza Neuraminidase was less than 0.05 µM; in test [1], more than 300 µM.

The values above are taken from patent US20020081572A1, “Three dimensional structure of paramyxovirus hemagglutinin neuraminidases and use thereof” (priority 2000, published 2002).
